Assay results: PMC5962642, “Dynamic imaging of adaptive stress response pathway activation for prediction of drug induced liver injury” (Archives of Toxicology, 2018)

Experiments:
[1] = two classes made from the FDA DILI-concern labeling
[2] = C-max obtained from FDA or literature; ref per compound (FDA, Dailymed, Xu, O’Brien, Khetani, Regenthal, Gustafsson, Dawson, Ogutu, Patel, Schmidt, Ravic, Keisu, Hu, Wagner); cited from earlier work
[3] = tested on: Srxn1-GFP (oxidative stress); assay: HepG2 Srxn1-GFP BAC reporter, live cell confocal imaging (oxidative stress); format: cell-based, Human; conditions: for Srxn1-GFP reporter response: HepG2 BAC-GFP, 24 h live imaging, 1-100 C-max; for Srxn1-GFP response at the intensity feature level (cell population): GFP intensity over the single cell population
Procedure: Human hepatoma HepG2 cells were acquired from ATCC (clone HB8065). HepG2 Srxn1, DDIT3 (CHOP), CDKN1A (p21) and ICAM1 BAC GFP reporter cell lines were previously established and characterized (Wink et al. [2017]). HepG2 BAC GFP reporters were maintained and exposed to drugs in DMEM high glucose supplemented with 10% (v/v) FBS, 25 U/mL penicillin and 25 µg/mL streptomycin. The cell lines were used between passage 5 and 25. For live cell imaging, the cells were seeded in Greiner black µ-clear 384 wells plates, at 8000 cells per well.
Accumulation of GFP levels, propodium iodide (PI) and Hoechst staining was monitored using a Nikon TiE2000 confocal laser microscope (lasers 540, 488 and 408 nm), equipped with an automated stage and perfect focus system at 37 °C with humidified atmosphere and 5% CO2/air mixture. All imaging was similar as previously described^5. Each 384-well plate contained one reporter cell line, which was exposed to all the compounds used in the screen at one certain concentration (1, 5, 10, 50 or 100 Cmax); for each concentration at least two replicates were imaged per reporter cell line. For the ICAM1-GFP reporter experiments, cells were first exposed for 8 h to compound only; next, TNFα was added to all wells, up to a final concentration of 10 ng/mL. Directly after TNFα treatment the live cell imaging was started.
Quantitative image analysis was performed with CellProfiler version 2.1.1 (Kamentsky et al. [2011]) with an in house developed CellProfiler module implementing the watershed masked algorithm for segmentation (Yan and Verbeek [2012]; Wink et al. [2017]). Image analysis results were stored as HDF5 files. Data analysis, quality control and graphics were performed using the in house developed R package h5CellProfiler (manuscript in preparation). For each reporter hourly intensity levels of the GFP signal, the nuclear Hoechst33342 intensity levels and at 24 h the PI staining were measured at the single cell level. In addition, cell numbers, nuclei size and cell motility were measured.
GFP intensity cell population means were calculated. In addition, for each plate the cell population mean GFP intensity of the DMSO treated cells was calculated to determine background control values. Per plate, the single cells that had values above the 2X mean, 3X mean were counted resulting in GFP positive fraction measures. For ICAM1, the background control values consisted of DMSO conditions treated with TNFα, and the single cells with values above, as well as below background values were counted. Due to the non-symmetric distribution of ICAM1 cell population GFP intensities, the interquartile range (IQR) was used to count the number of cells 1.5, 2 and 3 times above and below the TNFα IQR control values (Supplemental Fig. 1).
The maximum values over time of the scaled intensity levels and positive GFP fractions were selected for the concentration response curves. These values were fit to a four parameter log-logistic model using the drc package (Ritz et al. [2015]). BMC values were calculated as the concentration at which + 0.25 (and − 0.25 for ICAM1) absolute increase from the initial response values occurred (Fig. 5a).

[4] = ref livertox.nih.gov database; cited from earlier work
[5] = ref Chen et al. [2016], cited from earlier work; for DILI con. (DILI-concern labeling): FDA DILI labeling; for Hepa. (hepatotoxicity class): FDA labeling in eight classes of hepatotoxicity

C[C@H]1O[C@H](O[C@H]2[C@H](O)[C@@H](O)[C@@H](O[C@H]3[C@H](O)[C@@H](O)C(O)O[C@@H]3CO)O[C@@H]2CO)[C@H](O)[C@@H](O)[C@@H]1N[C@H]1C=C(CO)[C@@H](O)[C@H](O)[C@H]1O (stereo partly shown) [Acarbose]
Severity class [1]: Sev.
Cmax [2]: 0.15 µM

CC(=O)Nc1ccc(O)cc1 [Acetaminophen]
Srxn1-GFP reporter response [3]: activation
Metab (metabolic potential) [4]: YES

Nc1ncnc2c1ncn2CCOCP(=O)(O)O [Adefovir]
Severity class [1]: Non-sev.
Cmax [2]: 0.085 µM
DILI con. (DILI-concern labeling) [5]: Less-DC
Hepa. (hepatotoxicity class) [5]: 2

Oc1ncnc2[nH]ncc12 [Allopunnol]
Severity class [1]: Sev.
Cmax [2]: 13.8 µM
DILI con. (DILI-concern labeling) [5]: Most-DC
Hepa. (hepatotoxicity class) [5]: 8

C[N+](C)(C)CC(=O)O [Betaine]
Severity class [1]: Non-sev.
Cmax [2]: 940 µM
DILI con. (DILI-concern labeling) [5]: No-DC
Hepa. (hepatotoxicity class) [5]: 1

CN1C(=O)CCS(=O)(=O)C1c1ccc(Cl)cc1 (stereo not shown) [Chlormezanone]
Severity class [1]: Sev.
Cmax [2]: 10.6 µM
DILI con. (DILI-concern labeling) [5]: Most-DC
Hepa. (hepatotoxicity class) [5]: 8

CN(C)CCCN1c2ccccc2Sc2ccc(Cl)cc21 [Chlorpromazine]
Srxn1-GFP response at the intensity feature level (cell population) [3]: would not have been defined as positive
Cmax [2]: 0.94 µM
DILI con. (DILI-concern labeling) [5]: Less-DC
Hepa. (hepatotoxicity class) [5]: 2
Metab (metabolic potential) [4]: YES

Br.COc1ccc2c(c1)[C@]13CCCC[C@@H]1[C@H](C2)N(C)CC3 [Dextromethorphan hbr]
Severity class [1]: Non-sev.
Cmax [2]: 0.022 µM
DILI con. (DILI-concern labeling) [5]: No-DC

CCOC(=O)/C=C\C(=O)OCC [Diethylmaleate]
Srxn1-GFP reporter response [3]: strong inducers

CC[N+](C)(C)c1cccc(O)c1 [Edrophonium]
Severity class [1]: Non-sev.
Cmax [2]: 60.2 µM
Hepa. (hepatotoxicity class) [5]: 1

CCN(CC)C(=O)/C(C#N)=C/c1cc(O)c(O)c([N+](=O)[O-])c1 [Entacapone]
Severity class [1]: Non-sev.
Cmax [2]: 3.93 µM
DILI con. (DILI-concern labeling) [5]: Less-DC
Hepa. (hepatotoxicity class) [5]: 1
Metab (metabolic potential) [4]: YES

CC(C)NNC(=O)c1ccncc1 [Iboniazid]
Severity class [1]: Sev.
Cmax [2]: 76.6 µM
DILI con. (DILI-concern labeling) [5]: Most-DC
Hepa. (hepatotoxicity class) [5]: 8
Metab (metabolic potential) [4]: YES

NC[C@H]1O[C@H](O[C@H]2[C@H](O)[C@@H](O[C@H]3O[C@H](CO)[C@@H](O)[C@H](N)[C@H]3O)[C@H](N)C[C@@H]2N)[C@H](O)[C@@H](O)[C@@H]1O [Kanamycin]
Severity class [1]: Non-sev.
Cmax [2]: 60.1 µM

CC(=O)N1CCN(c2ccc(OCC3COC(Cn4ccnc4)(c4ccc(Cl)cc4Cl)O3)cc2)CC1 (stereo not shown) [Ketoconazole]
Srxn1-GFP response at the intensity feature level (cell population) [3]: no Srxn1-response
earliest concentration with Srxn1 response, %GFP positive marker ([3]; multiples of C-max): 50 C-max
Cmax [2]: 6.59 µM
DILI con. (DILI-concern labeling) [5]: Most-DC
Hepa. (hepatotoxicity class) [5]: 8

COc1ccc2[nH]c([S+]([O-])Cc3ncc(C)c(OC)c3C)nc2c1 (stereo not shown) [Omeprazole]
Cmax [2]: 4.7 µM
DILI con. (DILI-concern labeling) [5]: Less-DC
Hepa. (hepatotoxicity class) [5]: 4
Metab (metabolic potential) [4]: YES

CCC1(c2ccccc2)C(=O)NC(=O)NC1=O [Phenobarbital]
Severity class [1]: Non-sev.
Cmax [2]: 146 µM
Hepa. (hepatotoxicity class) [5]: 3

O=C1NC(=O)C(c2ccccc2)(c2ccccc2)N1 [Phenytoin]
Cmax [2]: 21.7 µM
DILI con. (DILI-concern labeling) [5]: Most-DC
Hepa. (hepatotoxicity class) [5]: 8
Metab (metabolic potential) [4]: YES

CCc1ccc(CCOc2ccc(CC3SC(=O)NC3=O)cc2)nc1 (stereo not shown) [Pioghtazone]
Severity class [1]: Non-sev.
Cmax [2]: 2.95 µM
DILI con. (DILI-concern labeling) [5]: Less-DC
Hepa. (hepatotoxicity class) [5]: 3

COc1cc(NC(C)CCCN)c2ncccc2c1 (stereo not shown) [Primaquine]
Severity class [1]: Non-sev.
DILI con. (DILI-concern labeling) [5]: No-DC
Hepa. (hepatotoxicity class) [5]: 1

CCC1(c2ccccc2)C(=O)NCNC1=O [Primidone]
Cmax [2]: 4.67 µM
Hepa. (hepatotoxicity class) [5]: 1
Metab (metabolic potential) [4]: YES

OC(CCN1CCCC1)(c1ccccc1)C1CCCCC1 (stereo not shown) [Procychdine]
Severity class [1]: Non-sev.

NC(=O)c1ncn([C@@H]2O[C@H](CO)[C@@H](O)[C@H]2O)n1 [Ribavirin]
Cmax [2]: 2.61 µM
DILI con. (DILI-concern labeling) [5]: Amb.-DC
Metab (metabolic potential) [4]: YES

CO[C@H]1/C=C/O[C@@]2(C)Oc3c(C)c(O)c4c(O)c(c(/C=N/N5CCN(C)CC5)c(O)c4c3C2=O)NC(=O)/C(C)=C\C=C\[C@H](C)[C@H](O)[C@@H](C)[C@@H](O)[C@@H](C)[C@H](OC(C)=O)[C@@H]1C [Rifampicin]
Cmax [2]: 15 µM
DILI con. (DILI-concern labeling) [5]: Most-DC
Metab (metabolic potential) [4]: YES

C[N+](C)(C)CCOC(=O)CCC(=O)OCC[N+](C)(C)C [Succinylcholine]
Severity class [1]: Non-sev.
Cmax [2]: 138 µM
DILI con. (DILI-concern labeling) [5]: No-DC
Hepa. (hepatotoxicity class) [5]: 1

CC1=C(CC(=O)O)c2cc(F)ccc2/C1=C\c1ccc([S+](C)[O-])cc1 (stereo not shown) [Sulindac]
Srxn1-GFP reporter response [3]: activation
Cmax [2]: 32 µM
DILI con. (DILI-concern labeling) [5]: Most-DC
Hepa. (hepatotoxicity class) [5]: 8
Metab (metabolic potential) [4]: YES

CSc1ccc2c(c1)N(CCC1CCCCN1C)c1ccccc1S2 (stereo not shown) [Thiondazine]
Severity class [1]: Non-sev.
Cmax [2]: 0.55 µM
Metab (metabolic potential) [4]: YES

Cc1ccc(C(=O)c2cc(O)c(O)c([N+](=O)[O-])c2)cc1 [Tolcapone]
Severity class [1]: Sev.
Cmax [2]: 22 µM
DILI con. (DILI-concern labeling) [5]: Most-DC
Hepa. (hepatotoxicity class) [5]: 8
Metab (metabolic potential) [4]: YES

O=c1n(CCCN2CCN(c3cccc(Cl)c3)CC2)nc2ccccn12 [Trazodone]
Cmax [2]: 5.06 µM
DILI con. (DILI-concern labeling) [5]: Less-DC
Hepa. (hepatotoxicity class) [5]: 5
Metab (metabolic potential) [4]: YES

Cc1c(C)c2c(c(C)c1O)CCC(C)(COc1ccc(CC3SC(=O)NC3=O)cc1)O2 (stereo not shown) [Troghtazone]
Severity class [1]: Sev.
DILI con. (DILI-concern labeling) [5]: Most-DC
Hepa. (hepatotoxicity class) [5]: 8
Metab (metabolic potential) [4]: YES

COc1cc(C(=O)NS(=O)(=O)c2ccccc2C)ccc1Cc1cn(C)c2ccc(NC(=O)OC3CCCC3)cc12 [Zafirlukast]
Cmax [2]: 1.21 µM
DILI con. (DILI-concern labeling) [5]: Most-DC
Hepa. (hepatotoxicity class) [5]: 8
Metab (metabolic potential) [4]: YES

CN(C)C/C=C(/c1ccc(Br)cc1)c1cccnc1 [Zimehdine]
Severity class [1]: Sev.
DILI con. (DILI-concern labeling) [5]: Most-DC
Hepa. (hepatotoxicity class) [5]: 8
